In US20200399329A1, “ANTIMICROBIAL PEPTIDES” (priority 2015, published 2020):
In brackets after ≈: the same amount, converted by molar mass. Several values for one entry are separate records, joined by “and”; a condition that tells them apart may be missing. Equal entries are not always repeated. Where a SMILES comes first, the peptide text is derived from it.

Tests used:
[1] = system: Escherichia coli (ATCC BAA-198) ESBL; assay: Efficacy in mouse model of subcutaneous infection with E. coli; assay type: in vivo, mice
Method: Animals: Healthy adult female mice weighing 16-20 g were used. CD-I outbred (Harlan Breeding Labs, Jerusalem, Israel) were used in all experiments. Animals were caged in groups of 5-10 and were maintained on chow (Ralston Purina) and water ad-libitum.
Bacteria: Escherichia coli (ATCC BAA-198) is an extended spectrum beta-lactamase (ESBL) TEM-26 multi drug resistant strain. Stock cultures were grown in Tryptic Soy Broth (TSB) (Becton, Dickinson and company BD. Maryland, USA) at 37°.
Colonies were counted after incubation for 24 hours on TSB-agar (BD), and results were expressed as colony forming units (CFU)/ml.
Inoculum: All broth cultures were adjusted to 1×10^8 CFU/animal for the challenge dose by adding TSB to a final volume of 50 μl. Bacteria were administered via subcutaneous (SC) injection with tuberculin syringes capped with 29-gauge needles. Recipient animals had the right flank shaved and depilated with hair remover cream (ORNA19, Israel). To inject the inoculum, the needle was inserted SC 1 cm lateral to the thoracic spine and just anterior to the right hind extremity. The needle was tracked anteriorly and SC for 1 cm; then 50 μl of inoculum was injected.
OMN6 peptide at 8 mg/kg in a total volume of 80 μl was injected SC after one hour to the same area. All animals appeared well and fully active within 2-4 hours after this procedure. All animals were monitored for food and water consumption, mortality and any other adverse effects for the entire 5-day duration of the experiment.
Evaluation of Bacterial Burden: A 2 cm^2 area of skin was incised and the inner side, where the abscess was located, was scraped with a sterile scalpel. Scraped tissue was filtered through a 40 μm cell-strainer. Filtered mass was collected, centrifuged at 500 RPM for 2 minutes and a sample from the supernatant was plated on TBS-agar plates for 24 hours at 37°. Colonies were then counted and results are presented as CFU/abscess (see FIG. 10A).
Evaluation of Abscesses: Animals were assessed for the presence and size of abscesses on day 5. The animals were anesthetized (Ketamine 225 mg/kg/Xylazine 6 mg/kg BW IP), the right hind flank area was gently exposed by aseptic technique. Abscesses were recorded and then measured by calipers: the product of the longest diameter (D) and corresponding perpendicular diameter (d) was determined as “abscess size” (D×d) findings presented in mm^2 (see FIG. 10B).

E. coli Sens. 25922 = assay type: cell-based, Escherichia coli
Method: (§1) In order to determine the MIC values of the peptides, growth and inhibition of various bacteria were monitored after treatment with the peptides of the invention (Table 6).
(§2) E. coli bacteria were cultured with or without OMN6 in increasing concentrations of 0.8-200 μM and with or without Fetal Bovine Serum 10% for 17-20 hours. The growth of the bacteria was continuously monitored via spectrophotometry at 600 nm. As bacterial growth progresses, OD600 nm values rise, and where the growth is inhibited OD600 nm values remain constant.
(§3) The experimental system and parameters described here were used to determine the MIC values of OMN2, OMN6, OMN7 and OMN11 on various bacteria strains (Table 7 and Table 8).

E. coli ESBL BAA-198 = assay type: cell-based, Escherichia coli
Method: as §1, §2, §3

E. coli CR BAA-2452 = assay type: cell-based, Escherichia coli; settings: OMN6 12.5 μM, FIG. 6D
Method: as §1, §2
E. coli NDM1 is a Carbapenem resistant strain of bacteria. The experimental system described above was used to determine the antimicrobial effect of OMN6 on this bacteria compared to the antibiotic drug Imipenem (IPM), a member of the Carbapenem family of antibiotics. The MIC value for IPM on sensitive E. coli is 4 μg/ml, in a MIC above 8 μg/ml the bacteria is considered resistant.
as §3

[2] = mice, SC 1×10^8 CFU E. coli ESBL, OMN6 8 mg/kg SC after one hour, day 5

CC[C@H](C)[C@H](NC(=O)CNC(=O)[C@H](CC(=O)O)NC(=O)[C@H](CCCNC(=N)N)NC(=O)[C@@H](NC(=O)[C@H](CC(N)=O)NC(=O)[C@H](CCC(N)=O)NC(=O)CNC(=O)[C@@H](NC(=O)[C@H](CCCCN)NC(=O)[C@H](CCC(=O)O)NC(=O)[C@@H](NC(=O)[C@H](CCCCN)NC(=O)[C@H](CCCCN)NC(=O)[C@H](Cc1ccccc1)NC(=O)[C@H](CC(C)C)NC(=O)[C@H](CCCCN)NC(=O)[C@H](Cc1c[nH]c2ccccc12)NC(=O)[C@H](CCCCN)NC(=O)[C@H](CS)NC(=O)[C@@H](N)CCSC)[C@@H](C)CC)C(C)C)[C@@H](C)CC)C(=O)N[C@H](C(=O)N[C@@H](CCCCN)C(=O)N[C@@H](C)C(=O)NCC(=O)N1CCC[C@H]1C(=O)N[C@@H](C)C(=O)N[C@H](C(=O)N[C@@H](C)C(=O)N[C@H](C(=O)N[C@H](C(=O)NCC(=O)N[C@@H](CCC(N)=O)C(=O)N[C@@H](C)C(=O)N[C@H](C(=O)N[C@@H](CCC(N)=O)C(=O)N[C@H](C(=O)N[C@@H](C)C(=O)N[C@@H](CCCCN)C(=O)N[C@@H](CS)C(N)=O)[C@@H](C)CC)[C@@H](C)O)C(C)C)C(C)C)C(C)C)[C@@H](C)CC [OMN6] (H-MCKWKLFKKIEKVGQNIRDGIIKAGPAVAVVGQATQIAKC-NH2; N-terminus and C-terminus assumed)
Decrease in abscess size ([1]; OMN6 8 mg/kg SC versus sham-saline): 80% | Decrease in bacteria burden ([1]; OMN6 8 mg/kg SC versus sham-saline, 8 mg/kg): 93.3% and 94% | Average size of the abscesses (D×d) [1, 2]: 7.25 mm^2 | Bacteria burden [1, 2]: 20 CFU/mouse | MIC value (E. coli Sens. 25922; Sens. 25922): 6.25 µM (≈ 27.1 µg/mL) | Minimal Inhibitory Conc. (MIC) (E. coli Sens. 25922; Sens. 25922, 17 h): 12.5 µM | MIC (E. coli ESBL BAA-198): 5 µM (≈ 21.7 µg/mL) | Inhibition of growth of E. coli NDM1 (E. coli CR BAA-2452): completely inhibited bacterial growth
